This passage reports DC50 and Dmax results from patent US12570662B2, “Substituted pyrrolo[1,2-b]pyridazines as bifunctional degraders of interleukin-1 receptor-associated kinases” (Nurix Therapeutics, Inc., priority 2021, dated 2026).

The assay addresses T1, IRAK4 (Homo sapiens, UniProt Q9NWZ3).
T1 construct: C-terminal HiBiT-tagged Jurkat cells (polyclonal cell line or clone 8D5); endogenous in cells; host or cells: Jurkat cells (polyclonal cell line or clone 8D5), HiBiT-tagged
T1 sequence (Q9NWZ3 1-460): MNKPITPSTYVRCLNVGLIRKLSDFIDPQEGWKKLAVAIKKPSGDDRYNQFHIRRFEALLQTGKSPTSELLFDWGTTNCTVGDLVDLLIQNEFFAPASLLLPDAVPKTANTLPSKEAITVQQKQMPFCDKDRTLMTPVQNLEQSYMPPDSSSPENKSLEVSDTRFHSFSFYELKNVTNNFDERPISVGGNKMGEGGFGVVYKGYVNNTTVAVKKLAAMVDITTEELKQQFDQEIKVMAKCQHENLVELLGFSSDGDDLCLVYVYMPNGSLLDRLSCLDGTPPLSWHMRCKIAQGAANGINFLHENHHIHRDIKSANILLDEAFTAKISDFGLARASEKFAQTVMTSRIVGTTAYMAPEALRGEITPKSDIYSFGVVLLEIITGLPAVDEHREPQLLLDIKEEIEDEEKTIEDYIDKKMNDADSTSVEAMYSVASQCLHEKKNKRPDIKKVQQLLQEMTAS
The assay is described as follows: IRAK4 Degradation HiBit Assay. The format is cell-based. The note with it: C-terminal HiBiT-tagged Jurkat cells, 4 hrs incubation; for DC50: % IRAK4 remaining, four-parameter fit (IC50 used as DC50); for Dmax: from fit of % IRAK4 remaining, read-out: Dmax. The method, then:
Compound dilution series (11-point, 3.16-fold dilutions in DMSO, columns 1-11 and 12-22) at 500× the final required concentrations were prepared in Labcyte LDV 384-well plates (cat. no. LP-0200) using a Labcyte Echo 550 Liquid Handler. The 500× solutions ranged from 5 mM to 0.5 μM (final assay concentration range 10 μM to 0.1 nM). Using the Echo, the 500× solutions were stamped into white, 384-well assay plates (Corning, cat. no. 3570) at 60 nL/well. The following assay plate controls were also stamped at 60 nL/well: DMSO in wells E23-P23 (NC, Negative Control, maximum signal), 5 mM solution control compound al in wells A23-D23 and M24-P24 (AC, Active Control, minimum signal/background, 10 μM final assay concentration), control compound al dilution series in wells […] (12-point, 4-fold dilutions). C-terminal HiBiT-tagged Jurkat cells (polyclonal cell line or clone 8D5) were plated at 1×10^6 cells/mL, 30 μL/well (3×10^4 cells/well) in complete RPMI (10% FBS, 1% L-glutamine). Cells were incubated for 4 hrs at 32° C./6% CO2. Compound al has the following structure:
Following incubation, 30 μL of complete Nano-Glo HiBiT Lytic Detection Reagent (Nano-Glo HiBiT Lytic Buffer with 1:50 Nano-Glo HiBiT Lytic Substrate and 1:100 LgBiT Protein; Promega cat. no. N3040) was added. Cells were further incubated for 10 min at room temperature (RT). Luminescence units (LU) were read on an EnVision plate reader (Perkin Elmer, 0.1 sec per well). Percent IRAK4 remaining per sample was calculated as follows: […]
Using Graphpad Prism, % IRAK4 remaining values were plotted as a function of compound concentration. To determine DC50 and Dmax values, resulting curves were fit to the Prism curve-fitting equation “log (inhibitor) vs response-Variable slope (four parameters)” (reported best fit value IC50 used as DC50). Table 1 summarizes the biological data of Compounds of Examples 1-137 and 142-145 obtained from the assays described herein.
(In general: The HiBiT peptide binds its large partner to form an active luciferase.)

Regarding `N#Cc1cnn2c(-c3cc(NC4CCOCC4)c(-c4nnc(N5CC6CCC(C5)N6C(=O)C5CCN(c6ccc([C@@H]7CCC(=O)NC7=O)cn6)CC5)s4)cn3)ccc2c1` (racemic) [Example 29, rac-7-(5-{5-[8-(1-{5-[(3R)-2,6-dioxopiperidin-3-yl]pyridin-2-yl}piperidine-4-carbonyl)-3,8-diazabicyclo[3.2.1]octan-3-yl]-1,3,4-thiadiazol-2-yl}-4-[(oxan-4-yl)amino]pyridin-2-yl)pyrrolo[1,2-b]pyridazine-3-carbonitrile], half-maximal degradation (DC50) was put at 9 nM and the Dmax came out at 79%.

Take `CNc1cc(-c2ccc3cc(C#N)cnn23)ncc1-c1nnc(C2CCC(C(=O)N3CCN(c4ccc([C@@H]5CCC(=O)NC5=O)cc4)CC3)CC2)s1` (mixture of isomers) [Example 32, 7-[4-(methylamino)-5-{5-[(1rs&,4rs&)-4-(4-{4-[(3RS)-2,6-dioxopiperidin-3-yl]phenyl}piperazine-1-carbonyl)cyclohexyl]-1,3,4-thiadiazol-2-yl}pyridin-2-yl]pyrrolo[1,2-b]pyridazine-3-carbonitrile]: it took 10 nM to reach half-maximal degradation (DC50) and the Dmax was determined as 54%.

Take `N#Cc1cnn2c(-c3cc(NC4CCOCC4)c(-c4nnc(N5CCC6(CCN(CC7CCN(c8ccc(C9CCC(=O)NC9=O)cn8)CC7)CC6)CC5)s4)cn3)ccc2c1` (racemic) [Example 33, rac-7-[5-(5-{9-[(1-{5-[(3R)-2,6-dioxopiperidin-3-yl]pyridin-2-yl}piperidin-4-yl)methyl]-3,9-diazaspiro[5.5]undecan-3-yl}-1,3,4-thiadiazol-2-yl)-4-[(oxan-4-yl)amino]pyridin-2-yl]pyrrolo[1,2-b]pyridazine-3-carbonitrile]: the DC50 was 45 nM and the Dmax stood at 101%.

Take `N#Cc1cnn2c(-c3cc(NC4CCOCC4)c(-c4nnc(N5CC6CCC(C5)N6CC5CCN(c6ccc([C@@H]7CCC(=O)NC7=O)cn6)CC5)s4)cn3)ccc2c1` (racemic) [Example 34, rac-7-[5-(5-{8-[(1-{5-[(3R)-2,6-dioxopiperidin-3-yl]pyridin-2-yl}piperidin-4-yl)methyl]-3,8-diazabicyclo[3.2.1]octan-3-yl}-1,3,4-thiadiazol-2-yl)-4-[(oxan-4-yl)amino]pyridin-2-yl]pyrrolo[1,2-b]pyridazine-3-carbonitrile]: the DC50 came out at 24 nM and the Dmax came out at 97%.

For `CCN(C(=O)C1CCN(c2ccc([C@@H]3CCC(=O)NC3=O)cn2)CC1)[C@H]1CC[C@H](c2nnc(-c3cnc(-c4ccc5cc(C#N)cnn45)cc3NC)s2)CC1` (racemic) [Example 35, 1-{5-[(3RS)-2,6-dioxopiperidin-3-yl]pyridin-2-yl}-N-ethyl-N-[(1r,4r)-4-[5-(6-{3-cyanopyrrolo[1,2-b]pyridazin-7-yl}-4-(methylamino)pyridin-3-yl)-1,3,4-thiadiazol-2-yl]cyclohexyl]piperidine-4-carboxamide], half-maximal degradation (DC50) was put at 27 nM and the Dmax was determined as 105%.

With `CCN(CC1CCN(c2ccc([C@@H]3CCC(=O)NC3=O)cn2)CC1)[C@H]1CC[C@H](c2nnc(-c3cnc(-c4ccc5cc(C#N)cnn45)cc3NC)s2)CC1` (racemic) [Example 36, 7-[4-(methylamino)-5-{5-[(1r,4r)-4-{[(1-{5-[(3RS)-2,6-dioxopiperidin-3-yl]pyridin-2-yl}piperidin-4-yl)methyl](ethyl)amino}cyclohexyl]-1,3,4-thiadiazol-2-yl}pyridin-2-yl]pyrrolo[1,2-b]pyridazine-3-carbonitrile], the DC50 came to 20 nM and the Dmax stood at 105%.

As to `N#Cc1cnn2c(-c3cc(NC4CCOCC4)c(-c4nnc(N5CCN(C(=O)C6CCN(c7ccc(C8CCC(=O)NC8=O)cn7)CC6)CC5)s4)cn3)ccc2c1` (racemic) [Example 37, rac-7-(5-{5-[4-(1-{5-[(3R)-2,6-dioxopiperidin-3-yl]pyridin-2-yl}piperidine-4-carbonyl)piperazin-1-yl]-1,3,4-thiadiazol-2-yl}-4-[(oxan-4-yl)amino]pyridin-2-yl)pyrrolo[1,2-b]pyridazine-3-carbonitrile], the 50% degradation concentration (DC50) came to 13 nM and the Dmax came to 108%.

As to `CNc1cc(-c2ccc3cc(C#N)cnn23)ncc1-c1nnc([C@H]2CC[C@H](CN3CCC(c4ccc([C@@H]5CCC(=O)NC5=O)cn4)CC3)CC2)s1` (racemic) [Example 38, 7-[4-(methylamino)-5-{5-[(1r,4r)-4-[(4-{5-[(3RS)-2,6-dioxopiperidin-3-yl]pyridin-2-yl}piperidin-1-yl)methyl]cyclohexyl]-1,3,4-thiadiazol-2-yl}pyridin-2-yl]pyrrolo[1,2-b]pyridazine-3-carbonitrile], the DC50 stood at 12 nM and the Dmax amounted to 109%.

Take `CNc1cc(-c2ccc3cc(C#N)cnn23)ncc1-c1nnc([C@H]2CC[C@H](C(=O)N3CCN(c4ccc([C@@H]5CCC(=O)NC5=O)cn4)CC3)CC2)s1` (racemic) [Example 39, 7-[4-(methylamino)-5-{5-[(1r,4r)-4-(4-{5-[(3RS)-2,6-dioxopiperidin-3-yl]pyridin-2-yl}piperazine-1-carbonyl)cyclohexyl]-1,3,4-thiadiazol-2-yl}pyridin-2-yl]pyrrolo[1,2-b]pyridazine-3-carbonitrile]: the DC50 turned out to be 19 nM and the Dmax amounted to 108%.

In the case of `CNc1cc(-c2ccc3cc(C#N)cnn23)ncc1-c1nnc(N2CC3(CCN(C(=O)C4CCN(c5ccc(C6CCC(=O)NC6=O)cn5)CC4)CC3)C2)s1` (racemic) [Example 40, rac-7-(5-{5-[7-(1-{5-[(3R)-2,6-dioxopiperidin-3-yl]pyridin-2-yl}piperidine-4-carbonyl)-2,7-diazaspiro[3.5]nonan-2-yl]-1,3,4-thiadiazol-2-yl}-4-(methylamino)pyridin-2-yl)pyrrolo[1,2-b]pyridazine-3-carbonitrile], half-maximal degradation (DC50) was put at 19 nM and the Dmax worked out at 114%.

With `N#Cc1cnn2c(-c3cc(NC4CCOCC4)c(-c4nnc(N5CCN(CC6CCN(c7ccc(C8CCC(=O)NC8=O)cn7)CC6)CC5)s4)cn3)ccc2c1` (racemic) [Example 43, 7-(5-{5-[4-({1-[5-(2,6-dioxopiperidin-3-yl)pyridin-2-yl]piperidin-4-yl}methyl)piperazin-1-yl]-1,3,4-thiadiazol-2-yl}-4-(oxan-4-ylamino)pyridin-2-yl)pyrrolo[1,2-b]pyridazine-3-carbonitrile], it took 14 nM to reach half-maximal degradation (DC50) and the Dmax was found to be 111%.

For `CNc1cc(-c2ccc3cc(C#N)cnn23)ncc1-c1nnc([C@H]2CC[C@H](CN3CCN(c4ccc([C@@H]5CCC(=O)NC5=O)cn4)CC3)CC2)s1` (racemic) [Example 44, 7-[4-(methylamino)-5-{5-[(1r,4r)-4-[(4-{5-[(3RS)-2,6-dioxopiperidin-3-yl]pyridin-2-yl}piperazin-1-yl)methyl]cyclohexyl]-1,3,4-thiadiazol-2-yl}pyridin-2-yl]pyrrolo[1,2-b]pyridazine-3-carbonitrile], half-maximal degradation (DC50) was put at 12 nM and the Dmax was found to be 114%.

Regarding `CNc1cc(-c2ccc3cc(C#N)cnn23)ncc1-c1nnc(N2CCN(C(=O)CC[C@@H]3CCN(c4ccc([C@@H]5CCC(=O)NC5=O)cn4)C3)CC2)s1` (racemic) [Example 45, 7-{5-[5-(4-{3-[(3RS)-1-{5-[(3RS&)-2,6-dioxopiperidin-3-yl]pyridin-2-yl}pyrrolidin-3-yl]propanoyl}piperazin-1-yl)-1,3,4-thiadiazol-2-yl]-4-(methylamino)pyridin-2-yl}pyrrolo[1,2-b]pyridazine-3-carbonitrile], the DC50 is 13 nM and the Dmax worked out at 113%.

Broadly, the DC50 is the concentration giving 50% degradation. One may read the Dmax as the greatest extent of degradation seen.
